ChEMBL document CHEMBL3797052 (Eur J Med Chem, 2016)

Columns and labels:
[1] = test system: KM12; experiment: Antiproliferative activity against human KM12 cells assessed as cell growth at 10^-4 M after 48 hrs by sulforhodamine B assay; type: functional; settings: KM12, 48 h, read-out: Activity
[2] = Antiproliferative activity against human OVCAR3 cells assessed as cell growth at 10^-8 M after 48 hrs by sulforhodamine B assay; type: functional; settings: OVCAR-3, 48 h, read-out: Activity
[3] = test system: NCI-H226; experiment: Antiproliferative activity against human NCI-H226 cells assessed as cell growth at 10^-7 M after 48 hrs by sulforhodamine B assay; type: functional; settings: NCI-H226, 48 h, read-out: Activity
[4] = Antiproliferative activity against human HOP92 cells assessed as cell growth at 10^-8 M after 48 hrs by sulforhodamine B assay; type: functional; settings: HOP-92, 48 h, read-out: Activity
[5] = Antiproliferative activity against human Caki1 cells assessed as cell growth at 10^-6 M after 48 hrs by sulforhodamine B assay; type: functional; settings: CAKI-1, 48 h, read-out: Activity
[6] = Antiproliferative activity against human TK10 cells assessed as cell growth at 10^-8 M after 48 hrs by sulforhodamine B assay; type: functional; settings: TK-10, 48 h, read-out: Activity
[7] = Antiproliferative activity against human SKOV3 cells assessed as cell growth at 10^-8 M after 48 hrs by sulforhodamine B assay; type: functional; settings: SK-OV-3, 48 h, read-out: Activity
[8] = test system: HT-29; experiment: Antiproliferative activity against human HT-29 cells assessed as cell growth at 10^-4 M after 48 hrs by sulforhodamine B assay; type: functional; settings: HT-29, 48 h, read-out: Activity
[9] = Antiproliferative activity against human DU145 cells assessed as cell growth at 10^-6 M after 48 hrs by sulforhodamine B assay; type: functional; settings: DU-145, 48 h, read-out: Activity
[10] = Antiproliferative activity against human PC3 cells assessed as cell growth at 10^-6 M after 48 hrs by sulforhodamine B assay; type: functional; settings: PC-3, 48 h, read-out: Activity
[11] = Antiproliferative activity against human UACC257 cells assessed as cell growth at 10^-6 M after 48 hrs by sulforhodamine B assay; type: functional; settings: UACC-257, 48 h, read-out: Activity
[12] = Antiproliferative activity against human MOLT4 cells assessed as cell growth at 10^-6 M after 48 hrs by sulforhodamine B assay; type: functional; settings: MOLT-4, 48 h, read-out: Activity
[13] = test system: U-251; experiment: Antiproliferative activity against human U251 cells assessed as cell growth at 10^-6 M after 48 hrs by sulforhodamine B assay; type: functional; settings: U-251, 48 h, read-out: Activity
[14] = test system: MDA-MB-231; experiment: Antiproliferative activity against human MDA-MB-231 cells assessed as cell growth at 10^-8 M after 48 hrs by sulforhodamine B assay; type: functional; settings: MDA-MB-231, 48 h, read-out: Activity
[15] = Antiproliferative activity against human RXF393 cells assessed as cell growth at 10^-8 M after 48 hrs by sulforhodamine B assay; type: functional; settings: RXF 393, 48 h, read-out: Activity
[16] = test system: NCI-H322M; experiment: Antiproliferative activity against human NCI-H322M cells assessed as cell growth at 10^-7 M after 48 hrs by sulforhodamine B assay; type: functional; settings: read-out: Activity
[17] = test system: KM12; experiment: Antiproliferative activity against human KM12 cells assessed as cell growth at 10^-6 M after 48 hrs by sulforhodamine B assay; type: functional; settings: KM12, 48 h, read-out: Activity
[18] = test system: T47D; experiment: Antiproliferative activity against human T47D cells assessed as cell growth at 10^-4 M after 48 hrs by sulforhodamine B assay; type: functional; settings: read-out: Activity
[19] = Antiproliferative activity against human HCT15 cells assessed as cell growth at 10^-4 M after 48 hrs by sulforhodamine B assay; type: functional; settings: HCT-15, 48 h, read-out: Activity
[20] = Antiproliferative activity against human LOXIMVI cells assessed as cell growth at 10^-6 M after 48 hrs by sulforhodamine B assay; type: functional; settings: LOX IMVI, read-out: Activity
[21] = Antiproliferative activity against human SF295 cells assessed as cell growth at 10^-7 M after 48 hrs by sulforhodamine B assay; type: functional; settings: SF-295, 48 h, read-out: Activity
[22] = test system: MDA-MB-231; experiment: Antiproliferative activity against human MDA-MB-231 cells assessed as growth inhibition after 48 hrs by sulforhodamine B assay; type: functional; settings: MDA-MB-231, 48 h
[23] = Antiproliferative activity against human COLO205 cells assessed as cell growth at 10^-8 M after 48 hrs by sulforhodamine B assay; type: functional; settings: COLO 205, 48 h, read-out: Activity
[24] = test system: SN12C; experiment: Antiproliferative activity against human SN12C cells assessed as cell growth at 10^-4 M after 48 hrs by sulforhodamine B assay; type: functional; settings: read-out: Activity
[25] = test system: Serine/threonine-protein kinase B-raf (Homo sapiens), P15056 [V600E]; experiment: Inhibition of BRAF V600E mutant (unknown origin) at 10 uM measured after 40 mins by scintillation counting
[26] = test system: NCI-H23; experiment: Antiproliferative activity against human NCI-H23 cells assessed as cell growth at 10^-7 M after 48 hrs by sulforhodamine B assay; type: functional; settings: NCI-H23, 48 h, read-out: Activity
[27] = test system: EKVX; experiment: Antiproliferative activity against human EKVX cells assessed as cell growth at 10^-7 M after 48 hrs by sulforhodamine B assay; type: functional; settings: read-out: Activity
[28] = Antiproliferative activity against human HCT15 cells assessed as growth inhibition after 48 hrs by sulforhodamine B assay; type: functional; settings: HCT-15, 48 h
[29] = test system: CCRF-CEM; experiment: Antiproliferative activity against human CCRF-CEM cells assessed as cell growth at 10^-8 M after 48 hrs by sulforhodamine B assay; type: functional; settings: read-out: Activity
[30] = Antiproliferative activity against human UACC62 cells assessed as cell growth at 10^-7 M after 48 hrs by sulforhodamine B assay; type: functional; settings: UACC-62, 48 h, read-out: Activity
[31] = Antiproliferative activity against human HL-60(TB) cells assessed as growth inhibition after 48 hrs by sulforhodamine B assay; type: functional; settings: HL-60, 48 h
[32] = test system: EKVX; experiment: Antiproliferative activity against human EKVX cells assessed as cell growth at 10^-6 M after 48 hrs by sulforhodamine B assay; type: functional; settings: read-out: Activity
[33] = Antiproliferative activity against human COLO205 cells assessed as growth inhibition after 48 hrs by sulforhodamine B assay; type: functional; settings: COLO 205, 48 h, read-out: LC50 (the source's name)
[34] = biological target: Voltage-gated inwardly rectifying potassium channel KCNH2 (Homo sapiens, UniProt Q12809); experiment: Inhibition of human ERG assessed as reduction in channel current by automated patch-clamp electrophysiology assay
[35] = test system: MDA-MB-468; experiment: Antiproliferative activity against human MDA-MB-468 cells assessed as cell growth at 10^-4 M after 48 hrs by sulforhodamine B assay; type: functional; settings: MDA-MB-468, 48 h, read-out: Activity
[36] = Antiproliferative activity against human OVCAR5 cells assessed as growth inhibition after 48 hrs by sulforhodamine B assay; type: functional; settings: OVCAR-5, 48 h
[37] = read-out: LC50 (the source's name)

Chain of Serine/threonine-protein kinase B-raf (Homo sapiens), P15056 [V600E] (P15056 whole entry V600E): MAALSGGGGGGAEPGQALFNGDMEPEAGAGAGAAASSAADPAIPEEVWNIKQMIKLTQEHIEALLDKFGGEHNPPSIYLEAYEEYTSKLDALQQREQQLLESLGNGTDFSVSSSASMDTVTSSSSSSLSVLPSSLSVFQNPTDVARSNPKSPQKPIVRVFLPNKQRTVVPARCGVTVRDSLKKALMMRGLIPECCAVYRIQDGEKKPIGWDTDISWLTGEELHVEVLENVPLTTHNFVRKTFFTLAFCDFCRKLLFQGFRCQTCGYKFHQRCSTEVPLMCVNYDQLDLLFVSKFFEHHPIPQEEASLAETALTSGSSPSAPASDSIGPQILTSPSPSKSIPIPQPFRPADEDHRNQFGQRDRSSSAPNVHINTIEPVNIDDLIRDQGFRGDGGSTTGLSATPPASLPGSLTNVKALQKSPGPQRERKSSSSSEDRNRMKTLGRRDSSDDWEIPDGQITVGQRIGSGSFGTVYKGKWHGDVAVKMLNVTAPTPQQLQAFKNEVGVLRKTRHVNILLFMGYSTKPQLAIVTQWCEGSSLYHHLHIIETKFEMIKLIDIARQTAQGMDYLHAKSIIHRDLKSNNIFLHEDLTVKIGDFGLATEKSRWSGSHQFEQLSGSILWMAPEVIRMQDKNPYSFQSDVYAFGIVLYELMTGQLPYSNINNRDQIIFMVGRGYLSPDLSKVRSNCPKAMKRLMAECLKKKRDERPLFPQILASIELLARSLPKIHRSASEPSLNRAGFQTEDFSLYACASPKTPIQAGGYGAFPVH
Chain of Voltage-gated inwardly rectifying potassium channel KCNH2 (Q12809 whole entry): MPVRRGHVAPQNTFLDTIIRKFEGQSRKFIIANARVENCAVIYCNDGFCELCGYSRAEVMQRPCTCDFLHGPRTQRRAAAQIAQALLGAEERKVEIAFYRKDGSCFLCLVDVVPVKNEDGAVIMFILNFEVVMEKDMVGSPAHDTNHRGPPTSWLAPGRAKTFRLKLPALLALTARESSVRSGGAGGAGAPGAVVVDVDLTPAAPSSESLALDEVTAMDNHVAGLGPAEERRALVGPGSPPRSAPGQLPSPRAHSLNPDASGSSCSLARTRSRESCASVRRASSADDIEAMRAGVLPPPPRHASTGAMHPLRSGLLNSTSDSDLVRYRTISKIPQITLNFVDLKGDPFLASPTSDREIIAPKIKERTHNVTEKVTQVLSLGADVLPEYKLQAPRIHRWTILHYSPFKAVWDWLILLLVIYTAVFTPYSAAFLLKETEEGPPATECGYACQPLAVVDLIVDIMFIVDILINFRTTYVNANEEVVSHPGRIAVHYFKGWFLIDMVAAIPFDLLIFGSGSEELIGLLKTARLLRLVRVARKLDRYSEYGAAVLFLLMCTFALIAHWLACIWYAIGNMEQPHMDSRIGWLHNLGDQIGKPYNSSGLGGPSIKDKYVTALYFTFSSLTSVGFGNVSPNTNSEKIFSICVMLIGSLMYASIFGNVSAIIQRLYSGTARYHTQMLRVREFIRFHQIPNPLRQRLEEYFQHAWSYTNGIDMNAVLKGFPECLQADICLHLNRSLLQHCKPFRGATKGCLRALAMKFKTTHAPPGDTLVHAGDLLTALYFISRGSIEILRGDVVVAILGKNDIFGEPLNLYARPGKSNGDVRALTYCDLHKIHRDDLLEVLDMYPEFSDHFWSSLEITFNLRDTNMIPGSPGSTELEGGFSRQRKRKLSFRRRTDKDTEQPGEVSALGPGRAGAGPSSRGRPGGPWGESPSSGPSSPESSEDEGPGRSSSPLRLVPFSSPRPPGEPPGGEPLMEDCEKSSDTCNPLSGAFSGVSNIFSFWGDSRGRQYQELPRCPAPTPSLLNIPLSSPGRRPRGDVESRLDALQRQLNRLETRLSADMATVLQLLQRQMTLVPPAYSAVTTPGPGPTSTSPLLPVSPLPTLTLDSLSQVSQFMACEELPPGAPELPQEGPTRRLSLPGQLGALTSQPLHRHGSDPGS

Q: Which growth at 100 µM [1] does the source give for `CNC(=O)c1cc(Oc2ccc3nc(NC(=O)Nc4ccc(Cl)c(C(F)(F)F)c4)sc3c2)ccn1` here?
A: The growth at 100 µM was 45%.

Q: And the growth at 0.01 µM [2]?
A: Its growth at 0.01 µM is 109%.

Q: What about the growth at 0.1 µM [3] of the same molecule?
A: The growth at 0.1 µM was 99%.

Q: What about the growth at 0.01 µM [4] of the same molecule?
A: The growth at 0.01 µM was 85%.

Q: What about the growth at 1 µM [5] of the same molecule?
A: The growth at 1 µM was 95%.

Q: What about the growth at 0.01 µM [6] of the same molecule?
A: Its growth at 0.01 µM is 104%.

Q: What about the growth at 0.01 µM [7] of the same molecule?
A: The growth at 0.01 µM was 97%.

Q: What about the growth at 100 µM [8] of the same molecule?
A: The growth at 100 µM was 68%.

Q: What about the growth at 1 µM [9] of the same molecule?
A: The growth at 1 µM was 82%.

Q: And the growth at 1 µM [10]?
A: The growth at 1 µM was 71%.

Q: What about the growth at 1 µM [11] of the same molecule?
A: The growth at 1 µM was 90%.

Q: And the growth at 1 µM [12]?
A: Its growth at 1 µM is 95%.

Q: What about the growth at 1 µM [13] of the same molecule?
A: Its growth at 1 µM is 89%.

Q: And the growth at 0.01 µM [14]?
A: Its growth at 0.01 µM is 115%.

Q: And the growth at 0.01 µM [15]?
A: Its growth at 0.01 µM is 87%.

Q: What about the growth at 0.1 µM [16] of the same molecule?
A: The growth at 0.1 µM was 103%.

Q: What about the growth at 1 µM [17] of the same molecule?
A: Its growth at 1 µM is 85%.

Q: What about the growth at 100 µM [18] of the same molecule?
A: The growth at 100 µM was -16%.

Q: What about the growth at 100 µM [19] of the same molecule?
A: The growth at 100 µM was 23%.

Q: What about the growth at 1 µM [20] of the same molecule?
A: The growth at 1 µM was 87%.

Q: What about the growth at 0.1 µM [21] of the same molecule?
A: The growth at 0.1 µM was 88%.

Q: And the GI50 [22]?
A: The GI50 was 1.43 µM.

Q: And the TGI [22]?
A: Its TGI is 4.29 µM.

Q: And the CC50 [22, 37]?
A: The CC50 was 59.2 µM.

Q: What about the growth at 0.01 µM [23] of the same molecule?
A: The growth at 0.01 µM was 98%.

Q: And the growth at 100 µM [24]?
A: The growth at 100 µM was 12%.

Q: What about the inhibition [25] of the same molecule?
A: Its inhibition is 55.1%.

Q: What about the growth at 0.1 µM [26] of the same molecule?
A: The growth at 0.1 µM was 97%.

Q: And the growth at 0.1 µM [27]?
A: The growth at 0.1 µM was 94%.

Q: What about the GI50 [28] of the same molecule?
A: The GI50 was 1.95 µM.

Q: What about the LC50 [28] of the same molecule?
A: The LC50 was over 100 µM.

Q: What about the growth at 0.01 µM [29] of the same molecule?
A: The growth at 0.01 µM was 105%.

Q: And the growth at 0.1 µM [30]?
A: The growth at 0.1 µM was 91%.

Q: And the GI50 [31]?
A: Its GI50 is over 100 µM.

Q: And the TGI [31]?
A: Its TGI is over 100 µM.

Q: What about the CC50 [31, 37] of the same molecule?
A: Its CC50 is over 100 µM.

Q: And the growth at 1 µM [32]?
A: Its growth at 1 µM is 82%.

Q: What about the CC50 [33] of the same molecule?
A: The CC50 was over 100 µM.

Q: And the IC50 [34]?
A: The IC50 was over 100 µM.

Q: What about the growth at 100 µM [35] of the same molecule?
A: The growth at 100 µM was -43%.

Q: What about the GI50 [36] of the same molecule?
A: Its GI50 is 2.46 µM.

Q: And the TGI [36]?
A: The TGI was 7.55 µM.

Q: What about the CC50 [36, 37] of the same molecule?
A: The CC50 was over 100 µM.
